Values joined by “and” are separate entries in the source; they are usually repeats but may differ in a detail not shown here. Identical values can stand only once.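 These data come from cells grown in 96-well plates and exposed to compound for 48 hours at five concentrations. Here, GI50 denotes the concentration required for 50% inhibition of growth. TGI: concentration producing complete growth inhibition.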
Experiments:
Assay in all cases: DTP human tumour cell line panel, 48 h
786-0 renal = system: 786-0 renal
ACHN renal = system: ACHN renal
HCT-15 colon = system: HCT-15 colon
LOX IMVI melanoma = system: LOX IMVI melanoma
NCI-H522 lung = system: NCI-H522 lung
OVCAR-3 ovarian = system: OVCAR-3 ovarian
OVCAR-4 ovarian = system: OVCAR-4 ovarian
SW-620 colon = system: SW-620 colon
UACC-62 melanoma = system: UACC-62 melanoma
HL-60(TB) leukemia = system: HL-60(TB) leukemia

SMILES | GI50 (786-0 renal) | TGI (786-0 renal) | GI50 (ACHN renal) | TGI (ACHN renal) | GI50 (HCT-15 colon) | TGI (HCT-15 colon) | GI50 (LOX IMVI melanoma) | TGI (LOX IMVI melanoma) | GI50 (NCI-H522 lung) | TGI (NCI-H522 lung) | GI50 (OVCAR-3 ovarian) | TGI (OVCAR-3 ovarian) | GI50 (OVCAR-4 ovarian) | TGI (OVCAR-4 ovarian) | GI50 (SW-620 colon) | TGI (SW-620 colon) | GI50 (UACC-62 melanoma) | TGI (UACC-62 melanoma) | GI50 (HL-60(TB) leukemia) | TGI (HL-60(TB) leukemia)
COc1ccc2c(C3(c4cn(C)c5cc(OC)ccc45)C(=O)Nc4ccc(Cl)cc43)cn(C)c2c1 | 4.12 µM | 70 µM | 3.32 µM | > 100 µM | 4.5 µM | > 100 µM | 3.4 µM | 21.9 µM | 3.38 µM | 12.7 µM | 4.31 µM | 18.4 µM | 3.35 µM | > 100 µM | 4.67 µM | > 100 µM | 3.49 µM | 25 µM | – | –
COc1ccccc1C1=C(Nc2ccccc2)C(=O)NC1=O | > 25 µM | > 25 µM | > 25 µM | > 25 µM | > 25 µM | > 25 µM | > 25 µM | > 25 µM | > 25 µM | > 25 µM | > 25 µM | > 25 µM | > 25 µM | > 25 µM | > 25 µM | > 25 µM | > 25 µM | > 25 µM | > 25 µM | > 25 µM
Clc1ccc(-c2csc(Nc3cccc(-c4csc(-c5ccccc5)n4)c3)n2)cc1 | 10.8 µM | 21.1 µM | 14.6 µM | 42.1 µM | 6.01 µM | 14.7 µM | 3.53 µM | 9.79 µM | 10.2 µM | 23.5 µM | 11.4 µM | 32.4 µM | – | – | 12.2 µM | 28.8 µM | 6.24 µM | 13.6 µM | 17.2 µM | 40.9 µM
Cc1nnc2c3nnc(C)n3c3ccccc3n12 | – | > 100 µM | – | > 100 µM | – | > 100 µM | – | > 100 µM | – | > 100 µM | – | > 100 µM | – | > 100 µM | – | > 100 µM | – | > 100 µM | – | –
CCCCCCNC(=O)Oc1ccc(/C(=C(/C)Cc2ccc(OC)cc2)c2ccc(OCCCN(C)C)cc2)cc1 | 13.1 µM | 28.4 µM | 16.4 µM | 30.4 µM | 8.71 µM | 21.9 µM | 2.61 µM | 15.6 µM | 16.2 µM | 31.3 µM | 15.2 µM | 29.3 µM | 13.1 µM | 26.7 µM | 16.4 µM | 31.2 µM | 16.6 µM | 30.4 µM | 10.5 µM | 24.9 µM
O=S(=O)(O)c1ccc(N=Nc2nc(C(F)(F)F)c(C(F)(F)F)[nH]2)cc1 | – | > 100 µM | – | > 100 µM | – | > 100 µM | – | 29.2 µM | – | – | – | > 100 µM | – | 50.4 µM | – | > 100 µM | – | 72.2 µM | – | > 100 µM
CC(=O)N1N=C(c2ccc(Nc3ccnc4cc(Cl)ccc34)cc2)CC1c1ccc(Cl)cc1 (stereo not given) | > 100 µM | > 100 µM | 3.96 µM | > 100 µM | 3.33 µM | > 100 µM | 3.15 µM | > 100 µM | 5.05 µM | > 100 µM | 7.19 µM | > 100 µM | 6.92 µM | > 100 µM | > 100 µM | > 100 µM | 2.95 µM | > 100 µM | 3.56 µM | > 100 µM
CN(C)C(=Nc1nc(=[N+](C)C)ss1)N(C)C | – | > 100 µM | – | > 100 µM | – | > 100 µM | – | – | – | > 100 µM | – | – | – | > 100 µM | – | > 100 µM | – | > 100 µM | – | > 100 µM
O=[N+]([O-])c1ccc(C2CC(c3ccccc3Cl)=Nc3ccccc3S2=O)cc1 (stereo not given) | – | 3.31 µM | – | 4.26 µM | – | 5.3 µM | – | 3.79 µM | – | 3.28 µM | – | 8.12 µM | – | 6.12 µM | – | 3.91 µM | – | 6.73 µM | – | 3.63 µM
COC(=O)C1=C(c2ccc(OC)c(OC)c2)OC(c2cc(OC)c(OC)c(OC)c2)C1 (stereo not given) | – | 74.4 µM | – | > 100 µM | – | – | – | > 100 µM | – | – | – | > 100 µM | – | > 100 µM | – | > 100 µM | – | – | – | –
CN=C(NC(=S)N(C)C)N(C)C | – | > 100 µM | – | > 100 µM | – | > 100 µM | – | – | – | > 100 µM | – | – | – | > 100 µM | – | > 100 µM | – | > 100 µM | – | > 100 µM
C=C1C(=O)O[C@H]2[C@H]1CC/C(COC(=O)CCSCCC(=O)OC/C1=C/CC[C@@]3(C)O[C@H]3[C@H]3OC(=O)C(=C)[C@@H]3CC1)=C\CC[C@@]1(C)O[C@@H]21 | 0.904 µM | 2.21 µM | 0.658 µM | 1.89 µM | 1.11 µM | 2.46 µM | 0.44 µM | 1.6 µM | 0.686 µM | 2.29 µM | 0.451 µM | 1.69 µM | 1.66 µM | 3.71 µM | 0.556 µM | 2.02 µM | 1.7 µM | 3.61 µM | – | –
CC(=O)NC1C(OCc2ccccc2)OC(CO)C(O)C1OC(C)C(=O)N[C@@H](C)C(=O)N[C@H](CCC(=O)OCCNc1c2ccccc2nc2cccc([N+](=O)[O-])c12)C(N)=O (stereo not given in full) | – | 0.00335 µM and 0.00671 µM | – | 0.0071 µM | – | 0.00156 µM | – | – | – | 0.00669 µM | – | 0.00427 µM | – | 0.0116 µM | – | 0.00283 µM | – | 0.00203 µM | – | 0.0564 µM
CCOC(=O)c1c(C)n(Cc2ccccc2)c2c1cc(O)c1[nH]c(Cc3ccccc3)nc12 | 20.2 µM | 72 µM | 23 µM | > 100 µM | 4.66 µM | > 100 µM | 13.8 µM | > 67.8 µM | – | – | 11.4 µM | 44 µM | 10.9 µM | > 57.3 µM | 22.1 µM | > 60 µM | 23.8 µM | > 100 µM | – | –
COC(=O)C(=CNC(N)=O)C(=O)OC | – | > 100 µM | – | > 100 µM | – | > 100 µM | – | > 100 µM | – | > 100 µM | – | > 100 µM | – | – | – | > 100 µM | – | > 100 µM | – | –
O=C(CC1(O)C(=O)Nc2ccc(Br)cc21)c1ccc(Cl)cc1Cl (stereo not given) | – | > 100 µM | – | > 100 µM | – | > 100 µM | – | – | – | 70.5 µM | – | > 100 µM | – | > 100 µM | – | > 100 µM | – | 33.7 µM | – | 48.3 µM
CS(=O)(=O)NNS(=O)(=O)c1ccccc1 | – | > 100 µM | – | > 100 µM | – | > 100 µM | – | > 100 µM | – | > 100 µM | – | – | – | > 100 µM | – | > 100 µM | – | > 100 µM | – | > 100 µM
